Data taken from patent publication US10830770B2, “Cell death assay” (HQ MEDICAL (NETHERLANDS) B.V., priority 2012, dated 2020).

Tested on: 4T1-luc2 mouse breast cancer cells
Assay: dry-ice dead-cells-assay (in vitro model of cryo-induced cell death)
Assay type: cell-based
Conditions: Trypan Blue 0.2% in culture medium, 15 min, FIG. 4A
Procedure: The dead cell targeting properties of seven HQ medical compounds (HQ1-7) were assessed in a newly developed in vitro assay of living and dead 4T1-luc2 mouse breast cancer cells. For this 4T1-luc2 cells were cultured to confluence in 12-well plates and a local area of cell death was induced by applying a bar of dry ice to the bottom of the culture well. Subsequently, the cells were incubated with the test compounds, washed and imaged with the Lycor Odyssey.
4T1-Luc cells were seeded onto individual wells from a 12-well cell culture plate and allowed to grow to confluence in RPMI media supplemented with 10% fetal bovine serum. 4T1-luc2 mouse breast cancer cells were used as the adherence of these cells to the bottom of the culture well remains strong after dry-ice treatment. To initiate cryo-induced cell death, media was discarded and dry-ice was applied to the bottom center of each individual well for 15 sec. Subsequently, fresh medium with different concentrations of the HQ medical compounds (HQ1-7) were added and cells were incubated at 37° C. for 15 min. After incubation, the media were discarded and the cells were washed twice with serum free medium and 0.5 ml fresh RPMI was added to each well. Cells were then visualized using a Licor Odyssey equipped with 700 and 800 nm diode laser. Luciferin ([…]) was also added to each well and fluorescence and bioluminescence images were acquired using an IVIS Spectrum (fluorescence: excitation filter: 710 nm, emission filter: 820 nm, exposure time: 90 s, bin: 8, f/stop: 2, field of view: 12.9 cm) (bioluminescence: open filter, exposure time: 30 s, bin: 8, f/stop: 1, field of view: 12.9 cm). Some culture wells were also stained for 15 min with Trypan Blue (0.2% in culture medium) to confirm cell death.
Confluent cultures of 4T1-luc2 breast cancer cells were treated for 15 sec with a focal application of dry-ice to the bottom center of a culture well and were used to examine the dead cell binding properties of the seven HQ medical NIRF compounds. First, however, in order to confirm the presence of a local area of dead cells, the dry-ice treated cultures were incubated with Trypan blue or were treated with luciferin and measured for bioluminescence.
HQ medical #1-7 were examined for their imaging potential of dead cells in the present dry-ice dead-cells-assay. The cells were incubated with the HQ medical compounds with concentrations ranging from 0.5 to 0.001 uM. HQ medical #4-7, all specifically bound to dead cells (FIGS. 5A and B). […] For HQ medical #6 and 7, a signal from the dead cell area could be detected at least 50-fold higher concentrations.

Molecule | uptake of Trypan Blue at site of focal dry-ice treatment compared to viable cells in the periphery
Cc1cc(-c2ccc(/N=N/c3c(S(=O)(=O)O)cc4cc(S(=O)(=O)O)cc(N)c4c3O)c(C)c2)ccc1/N=N/c1c(S(=O)(=O)O)cc2cc(S(=O)(=O)O)cc(N)c2c1O [Trypan Blue] | increased uptake

Same assay, conditions: dead vs living cells

Molecule | binding to dead cells
CC1(C)C(/C=C/C2=C(Oc3ccc(S(=O)(=O)O)cc3)C(=C/C=C3/N(CCCCS(=O)(=O)O)c4ccc(S(=O)(=O)[O-])cc4C3(C)C)/CCC2)=[N+](CCCCCC(=O)O)c2ccc(S(=O)(=O)O)cc21 [CW 800] | specific binding to dead cells
CCN1C(=CC=CC2=[N+](CCCCCC(=O)O)c3ccc(S(=O)(=O)O)cc3C2(C)C)C(C)(C)c2cc(S(=O)(=O)[O-])ccc21 [CY3] | specific binding to dead cells
CCN1/C(=C/C=C/C=C/C2=[N+](CCCCCC(=O)O)c3ccc(S(=O)(=O)O)cc3C2(C)C)C(C)(C)c2cc(S(=O)(=O)[O-])ccc21 [CY5] | specific binding to dead cells
CCN1C(=CC=CC=CC=CC2=[N+](CCCCCC(=O)O)c3ccc(S(=O)(=O)O)cc3C2(C)C)C(C)(C)c2cc(S(=O)(=O)[O-])ccc21 [CY7] | specific binding to dead cells
CCN1c2cc3c(cc2C(C)=CC1(C)C)C(=CC=CC1=[N+](CCCS(=O)(=O)[O-])c2ccc(S(=O)(=O)[O-])cc2C1(C)CCCC(=O)O)C=C(c1ccccc1)O3.[Na+] (stereo not drawn) [DY-676] | specific binding to dead cells
CC[N+](CC)=c1ccc2c(C(C)(C)C)cc(/C=C/C=C3/N(CCCS(=O)(=O)[O-])c4ccc(S(=O)(=O)[O-])cc4C3(C)CCCC(=O)O)oc-2c1.[Na+] (stereo not drawn) [DY-681] | specific binding to dead cells
CC[N+](CC)=c1ccc2c(/C=C/C=C/C=C3/N(CCCS(=O)(=O)[O-])c4ccc(S(=O)(=O)[O-])cc4C3(C)CCCC(=O)O)cc(C(C)(C)C)oc-2c1.[Na+] (stereo not drawn) [DY-731] | specific binding to dead cells
CCN1c2cc3c(cc2C(C)=CC1(C)C)/C(=C/C=C/C=C/C1=[N+](CCCS(=O)(=O)[O-])c2ccc(S(=O)(=O)[O-])cc2C1(C)CCCC(=O)O)C=C(c1ccccc1)O3.[Na+] (stereo not drawn) [DY-776] | specific binding to dead cells
CC1(C)C(/C=C/C=C/C=C/C=C2\N(CCCCS(=O)(=O)[O-])c3ccc4ccccc4c3C2(C)C)=[N+](CCCCS(=O)(=O)[O-])c2ccc3ccccc3c21.[Na+] [ICG] | specific binding to dead cells
CC1(C)C(=CC=C2CCCC(C=CC3=[N+](CCC[N+](C)(C)C)c4ccc(S(=O)(=O)O)cc4C3(C)C)=C2Oc2ccc(CCC(=O)O)cc2)N(CCC[N+](C)(C)C)c2ccc(S(=O)(=O)O)cc21 [ZW800] | specific binding to dead cells
CY5.5 | specific binding to dead cells
